Patent US5985894A, “N-substituted quinolines” (Hoechst Marion Roussel, priority 1991, dated 1999)

Assays:
[1] = test system: angiotensin II on the isolated portal vein; test: Antagonistic activity of angiotensin II on the isolated portal vein; assay type: cell-based, male Wistar rats; settings: isolated rat portal vein, angiotensin II 3.10^-8 M, compound 15 minutes before; read-out: IC50 (50% inhibition of the response to angiotensin)
Experimental: The portal vein was removed from male Wistar rats weighing about 350 g (IFFA Credo France) after cervical dislocation, and put rapidly into a physiological solution (see below) at ambient temperature. A ring of about 1 mm was mounted in a bath with an isolated element containing 20 ml of the following physiological solution (composition in mM: NaCl 118.3-KCl 4.7-MgSO4 1.2-KH2 PO4 1.2-NaHCO3 25-glucose 11.1-CaCl2 2.5). The medium was maintained at 37° C. and oxygenated with a mixture of O2 95%, CO2 5%. The initial pressure imposed was 1 g and the rings were left at rest for 60 to 90 minutes. To avoid spontaneous contractions, verapamil was added to the incubation bath (1.10^-6 M). At the end of the rest period, angiotensin II (Ciba hypertensis) 3.10^-8 M were added to the incubation bath and left in contact with the preparation for one minute. This operation was repeated every 30 minutes with the tissue being washed 3 or 4 times between two stimulations with angiotensin. The compound to be studied was introduced into the bath 15 minutes before a new stimulation with angiotensin. As increasing concentrations of the molecule were used, an IC50 (concentration that produced a 50% inhibition of the response to angiotensin) was calculated, expressed in nanomoles.

Angiotensin II Receptor = target: T1, Angiotensin II Receptor (Rattus norvegicus, UniProt P25095); test: Test on the Angiotensin II Receptor (displacement of 125I angiotensin II, rat liver membranes); assay type: binding; settings: pH 7.4, 25° C., 150 minutes
T1 construct: A fresh membrane preparation obtained from the liver of a rat was used; from tissue; host or cells: rat liver, fresh membrane preparation
T1 sequence (P25095 1-359): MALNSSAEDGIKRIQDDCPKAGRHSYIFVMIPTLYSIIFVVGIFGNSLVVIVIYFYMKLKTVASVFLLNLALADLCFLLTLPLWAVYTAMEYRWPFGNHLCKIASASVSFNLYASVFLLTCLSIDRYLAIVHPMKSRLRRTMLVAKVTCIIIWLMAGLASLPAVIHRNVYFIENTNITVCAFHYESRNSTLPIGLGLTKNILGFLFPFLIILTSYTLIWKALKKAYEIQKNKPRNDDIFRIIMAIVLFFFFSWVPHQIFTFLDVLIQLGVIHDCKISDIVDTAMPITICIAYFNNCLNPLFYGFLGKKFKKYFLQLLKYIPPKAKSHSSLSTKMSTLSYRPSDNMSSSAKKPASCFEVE
Experimental: 1) Test on the Angiotensin II Receptor
A fresh membrane preparation obtained from the liver of a rat was used and the tissue was ground up in a polytron in a Tris 50 mM pH 7.4 buffer. After being ground up, the tissue was centrifuged 3 times at 30,000 g for 15 minutes with intermediate taking up of the deposits in the Tris pH 7.4 buffer. The last deposits were suspended in a pH 7.4 incubation buffer (Tris 20 mM, NaCl 135 mM, KCl 10 mM, glucose 5 mM, MgCl2 10 mM, phenyl methyl sulfonyl fluoride 0.3 mM, bacitracine 0.1 mM (0.2% bovine albumin serum). 2 ml aliquoted fractions were divided into hemolysis tubes and ^125 I angiotensin II (25,000 DPM/tube) and the product to be studied were added. The product has first tested at 3×10^-5 M in triplicate. When the test product displaced more than 50% of the radioactivity linked specifically to the receptor, it was tested again according to a range of 7 concentrations to determine the concentration that inhibited the radioactivity linked specifically to the receptor by 50%. In this way, the 50% inhibiting concentration was determined.
The non-specific bond was determined by the addition of the product of Example 94 of the European Patent No. 0,253,310 at 10^-5 M (in triplicate). The deposit was incubated at 25° C. for 150 minutes, put back in a water bath at 0° C. for 5 minutes, filtered under vacuum, rinsed with Tris pH 7.4 buffer and the radioactivity was counted in the presence of scintillating Triton. The results were expressed directly as a 50% inhibiting concentration (IC50), that is to say as a concentration of product studied, expressed in nM, necessary to displace 50% of the specific radioactivity fixed on the receptor studied.

angiotensin II = test: Test for antagonistic activity of angiotensin II on a demedullated rat; assay type: in vivo, Male Sprague-Dawley rats; settings: iv, 5 min, pressure effect of angiotensin II 0.75 micrograms/kg, compound injected (jugular vein) 5 minutes before, read-out: 50% inhibiting dose
Experimental: 3) Test for Antagonistic Activity of Angiotensin II on a Demedullated Rat
Male Sprague-Dawley rats weighing 250 to 350 g were anaesthetized by an intraperitoneal injection of sodium pentobarbital (60 mg/kg). The diastolic arterial pressure was recorded using a heparinated catheter (PE50) introduced into the left carotid of the animal, and connected to a pressure calculator (Gould, Pressure Processor) by a Gould pressure sensor. A catheter was introduced into the right jugular vein of the animal for the injection of the molecules to be studied. The animal was placed under assisted respiration and a bilateral section of the pneumogastric nerves was carried out. The rat was then demedullated. After a sufficient period of stabilization, the study of the antagonism of the compounds vis-a-vis angiotensin II (Ciba Hypertensin) was carried out in the following manner.
1--Three consecutive injections of angiotensin II (0.75 micrograms/kg) spaced out over 15 minutes allowed a reproducible and stable pressure response to be obtained.
2--While keeping a time period of 15 minutes for the administration of angiotensin II, the molecules to be studied were injected 5 minutes before angiotensin II.
The pressure effects of angiotensin II in the presence of the antagonist were expressed as a percentage of the pressure effects of angiotensin II administered on its own. The 50% inhibiting dose of the effect studied was determined. Each animal was considered as its own control and the results are in the following Table

[2] = Passive avoidance test (scopolamine amnesia); assay type: in vivo, Male mice (CD1 Charles River); settings: s.c., 24 hours after treatment

Row | Compound | IC50 [1] | IC50 (Angiotensin II Receptor) | ED50 (angiotensin II) | PERCENTAGE OF INCREASE IN THE LATENCY TIME RELATIVE TO THE CONTROLS ([2]; dose 10 μg/kg) | PERCENTAGE OF INCREASE IN THE LATENCY TIME RELATIVE TO THE CONTROLS ([2]; dose 25 μg/kg) | PERCENTAGE OF INCREASE IN THE LATENCY TIME RELATIVE TO THE CONTROLS ([2]; dose 100 μg/kg) | PERCENTAGE OF INCREASE IN THE LATENCY TIME RELATIVE TO THE CONTROLS ([2]; dose 250 μg/kg) | PERCENTAGE OF INCREASE IN THE LATENCY TIME RELATIVE TO THE CONTROLS ([2]; dose 1000 μg/kg) | PERCENTAGE OF INCREASE IN THE LATENCY TIME RELATIVE TO THE CONTROLS ([2]; dose 1 μg/kg) | PERCENTAGE OF INCREASE IN THE LATENCY TIME RELATIVE TO THE CONTROLS ([2]; dose 0.1 μg/kg) | PERCENTAGE OF INCREASE IN THE LATENCY TIME RELATIVE TO THE CONTROLS ([2]; dose 0.25 μg/kg) | PERCENTAGE OF INCREASE IN THE LATENCY TIME RELATIVE TO THE CONTROLS ([2]; dose 2.5 μg/kg)
1 | CCCCc1cn(Cc2ccc(-c3ccccc3C(=O)O)cc2)c2ccccc2c1=O [Example 4, 4'-[(3-butyl-1,4-dihydro-4-oxo-1-quinolinyl)-methyl](1,1'-biphenyl)-2-carboxylic acid] | 96.5 nM | 180 nM | 7.55 mg/kg |  |  |  |  |  |  |  |  | 
2 | CCCCc1cn(Cc2ccc(-c3ccccc3C(=O)O)cc2)c2ccccc2c1=S [Example 6] | 66 nM | 400 nM | 6.65 mg/kg |  |  |  |  |  |  |  |  | 
3 | CCCCc1cn(Cc2ccc(-c3ccccc3C(=O)O)cc2)c2cc(C(=O)O)ccc2c1=O [Example 10, 3-butyl-1-[[2'-carboxy-(1,1'-biphenyl)-4-yl]-methyl]-1,4-dihydro-4-oxo-7-quinoline carboxylic acid] | 31 nM | 92 nM | 1.27 mg/kg |  |  |  |  |  |  |  |  | 
4 | CCCCc1cn(Cc2ccc(-c3ccccc3C(=O)O)cc2)c2cc(CO)ccc2c1=O [Example 12] | 49 nM |  | 3.76 mg/kg |  |  |  |  |  |  |  |  | 
5 | CCCCc1cn(Cc2ccc(-c3ccccc3C(=O)O)cc2)c2cc(C(=O)N3CCCC3)ccc2c1=O [Example 16] | 31.7 nM | 79 nM | 1.2 mg/kg |  |  |  |  |  |  |  |  | 
6 | CCCCc1cn(Cc2ccc(-c3ccccc3C(=O)O)cc2)c2c(Br)cccc2c1=O [Example 18, 4'-[(3-butyl-1,4-dihydro-8-bromo-4-oxo-1-quinolinyl)-methyl](1,1'-biphenyl)2-carboxylic acid] |  | 74 nM | 3.9 mg/kg |  |  |  |  |  |  |  |  | 
7 | CCCCc1cn(Cc2ccc(-c3ccccc3C(=O)O)cc2)c2c(c1=O)CCCC2 [Example 22, 4'-[(3-butyl-1,4,5,6,7,8-hexahydro-4-oxo-1-quinolinyl)-methyl](1,1'-biphenyl)-2-carboxylic acid] |  | 90 nM | 1 mg/kg | 8% | 26% | 66% | 128% | 127% |  |  |  | 
8 | CCCCc1cn(Cc2ccc(-c3ccccc3C(=O)O)cc2)c2c(C(=O)O)cccc2c1=O [Example 30] |  | 54 nM | 0.21 mg/kg | 37% | 65% | 91% | 144% | 126% | 23% |  |  | 
9 | CCCCc1cn(Cc2ccc(-c3ccccc3C(=O)O)cc2)c2cc(CCC(=O)O)ccc2c1=O [Example 38] |  |  |  | 118% | 132% | 131% | 101% | 158% | 57% | 1% |  | 
10 | CCCCc1cn(Cc2ccc(-c3ccccc3C(=O)O)cc2)c2cc(CC(=O)O)ccc2c1=O [Example 50] |  |  | 0.61 mg/kg | 190% | 225% | 149% |  |  | 84% | 20% | 31% | 93%
11 | CCCCc1cn(Cc2ccc(-c3ccccc3-c3nn[nH]n3)cc2)c2cc(C(=O)N3CCCC3)ccc2c1=O [Example 52] |  | 8.7 nM | 0.23 mg/kg |  |  |  |  |  |  |  |  | 
12 | CCCCc1cn(Cc2ccccc2CC(=O)O)c2ccccc2c1=O [Example 56] |  |  |  | 24% | 49% | 98% | 105% | 122% |  |  |  | 
13 | CCCCc1cn(Cc2ccc(-c3ccccc3C(=O)O)cc2)c2ccc(C)cc2c1=O [Example 58] |  |  |  | 112% | 110% | 129% |  |  | 29% | 3% |  | 
